Laboratory results: US20080233242A1, “Antioxidant of Bamboo Leaves and Its Uses” (priority 2003, published 2008)

System: lipid oxidation in Jinhua ham
Assay: Antioxidation and sensory quality of Jinhua ham slices (AV, POV, chromatic aberration)
Conditions: ham slice soaked 2 min in 0.03% solution, stored at 50±1° C. for 11 days, versus control group
Experimental: AOB was dissolved in water to produce a 0.03% solution, TBHQ (previously dissolved in ethanol) in the same concentration as control. A slice of Jinhua ham with a thickness of 1 cm was soaked for 2 min, and the effects of AOB on antioxidation and sensory quality of the slice of Jinhua ham were compared.

**Q.** How did the “lipid oxidation (AV and POV)” value turn out when `CC(C)(C)c1cc(O)ccc1O` [TBHQ, tert-butyl hydroquinone] was run?
**A.** significantly inhibited
